± gives the expanded uncertainty stated by the source.
Assay: mn = molality of the nth substance listed, in mol/kg
Details: 101 kPa, Liquid; for speed of sound: Pulse-echo method

CCCC[P+](CCCC)(CCCC)CCCC.[Br-] [tetrabutylphosphonium bromide] + CCO
Details | mass density, 288.15 K [kg/m3] | mass density, 293.15 K [kg/m3] | mass density, 298.15 K [kg/m3] | mass density, 303.15 K [kg/m3] | mass density, 308.15 K [kg/m3] | mass density, 313.15 K [kg/m3] | mass density, 323.15 K [kg/m3] | speed of sound, 298.15 K [m/s]
m1 = 0.01059 | 794.469 ± 0.24 | 790.202 ± 0.24 | 785.915 ± 0.25 | 781.605 ± 0.25 | 777.266 ± 0.26 | 772.883 ± 0.26 | 763.983 ± 0.27 | 1143.4 ± 0.81
m1 = 0.01529 | 794.835 ± 0.24 | 790.569 ± 0.24 | 786.285 ± 0.25 | 781.975 ± 0.25 | 777.642 ± 0.25 | 773.262 ± 0.26 | 764.367 ± 0.26 | –
m1 = 0.02012 | 795.211 ± 0.24 | 790.945 ± 0.24 | 786.664 ± 0.25 | 782.36 ± 0.25 | 778.029 ± 0.25 | 773.654 ± 0.26 | 764.765 ± 0.26 | 1144.2 ± 0.81
m1 = 0.02498 | 795.579 ± 0.24 | 791.314 ± 0.24 | 787.039 ± 0.25 | 782.735 ± 0.25 | 778.405 ± 0.25 | 774.033 ± 0.26 | 765.15 ± 0.26 | –
m1 = 0.03006 | 795.97 ± 0.24 | 791.71 ± 0.24 | 787.435 ± 0.25 | 783.133 ± 0.25 | 778.811 ± 0.25 | 774.44 ± 0.26 | 765.563 ± 0.26 | 1144.9 ± 0.81
m1 = 0.03503 | 796.342 ± 0.24 | 792.084 ± 0.24 | 787.812 ± 0.25 | 783.514 ± 0.25 | 779.185 ± 0.25 | 774.821 ± 0.26 | 765.954 ± 0.26 | –
m1 = 0.04151 | 796.84 ± 0.24 | 792.586 ± 0.24 | 788.317 ± 0.25 | 784.017 ± 0.25 | 779.692 ± 0.25 | 775.339 ± 0.26 | 766.473 ± 0.26 | –
m1 = 0.04161 | – | – | – | – | – | – | – | 1145.8 ± 0.81
m1 = 0.05762 | 798.064 ± 0.24 | 793.819 ± 0.24 | 789.557 ± 0.25 | 785.266 ± 0.25 | 780.958 ± 0.25 | 776.605 ± 0.26 | 767.762 ± 0.26 | 1147 ± 0.81
m1 = 0.0739 | 799.301 ± 0.24 | 795.066 ± 0.24 | 790.805 ± 0.24 | 786.532 ± 0.25 | 782.224 ± 0.25 | 777.879 ± 0.26 | 769.054 ± 0.26 | 1148.3 ± 0.82
m1 = 0.09578 | 800.947 ± 0.24 | 796.718 ± 0.24 | 792.466 ± 0.24 | 788.201 ± 0.25 | 783.906 ± 0.25 | 779.575 ± 0.25 | 770.773 ± 0.26 | 1150 ± 0.82
m1 = 0.1153 | 802.415 ± 0.24 | 798.195 ± 0.24 | 793.96 ± 0.24 | 789.696 ± 0.25 | 785.405 ± 0.25 | 781.083 ± 0.25 | 772.302 ± 0.26 | 1151.6 ± 0.83
m1 = 0.1491 | 805.003 ± 0.24 | 800.793 ± 0.24 | 796.569 ± 0.24 | 792.326 ± 0.25 | 788.054 ± 0.25 | 783.746 ± 0.25 | 775 ± 0.26 | 1154 ± 0.83
m1 = 0.1902 | 808.127 ± 0.24 | 803.94 ± 0.24 | 799.735 ± 0.24 | 795.51 ± 0.25 | 791.254 ± 0.25 | 786.963 ± 0.25 | 778.257 ± 0.26 | 1157.1 ± 0.84
m1 = 0.2304 | 811.194 ± 0.24 | 807.016 ± 0.24 | 802.825 ± 0.24 | 798.61 ± 0.25 | 794.369 ± 0.25 | 790.1 ± 0.25 | 781.434 ± 0.26 | 1160.1 ± 0.85
m1 = 0.2693 | 814.212 ± 0.24 | 810.05 ± 0.24 | 805.871 ± 0.24 | 801.675 ± 0.24 | 797.452 ± 0.25 | 793.195 ± 0.25 | 784.564 ± 0.26 | 1163.2 ± 0.86
m1 = 0.3148 | 817.67 ± 0.24 | 813.522 ± 0.24 | 809.364 ± 0.24 | 805.185 ± 0.24 | 800.979 ± 0.25 | 796.743 ± 0.25 | 788.154 ± 0.26 | 1166.6 ± 0.87
m1 = 0.3532 | 820.707 ± 0.24 | 816.572 ± 0.24 | 812.423 ± 0.24 | 808.255 ± 0.24 | 804.069 ± 0.25 | 799.851 ± 0.25 | 791.3 ± 0.26 | 1169.7 ± 0.88

From the NIST ThermoML archive (doi:10.1021/je900888e)
